Assay results from US20240350447A1, “DELIVERY METHODS FOR TREATING BRAIN AND CENTRAL NERVOUS SYSTEM DISEASES” (JENIVISION INC., priority 2021, published 2024).
Where “and” joins values, the source holds several entries; their conditions need not be identical. Equal entries are not always repeated. Where two headings read alike, the source gives them in different places.

Experiments:
[1] = Biodistribution of DHA after periorbital skin (NIODP) application to one eye; type: in vivo, Cynomolgus monkeys; details: undosed/dosed retina, 6755.1 μg to OS via NIODP
Procedure: An experiment was performed to determine the biodisposition of DHA following topical application to the periorbital skin that surrounds the anterior portion of the globe was performed.
Docosahexaenoic acid (DHA) is an omega-3 fatty acid and an essential component for neuronal formation, function and protection. […] […] High concentrations of DHA (from 35.6 to 97.3 μg/g) were detected in the undoes retina, which is similar to the dosed retina.
Moreover, compared to the baseline retina/plasma ratio of 7-fold, and with no significant changes in plasma, the retina/plasma ratios of DHA in the undosed eye were at least 30-fold at each post dose timepoint, signifying that the undosed retina uptake of DHA was not from blood circulation.

[2] = Baseline endogenous levels of DHA in monkeys; type: in vivo; details: no NIODP dosing
From the text: The endogenous levels DHA is originated from normal diet and not attributable to NIODP administration.

[3] = Baseline endogenous levels of DHA, DHA-EE and JV-DE1; type: in vivo; details: undosed Bama minipigs
Procedure: Endogenous levels were measured in the plasma, cerebrospinal fluid, ocular tissues (retina, optic nerve, ocular muscles), and brain. The endogenous levels DHA are not attributable to NIODP administration of DHA, DHA-EE, or JV-DE1. The baseline data collected in Table 4 was taken from the same lot of pigs, from the same vendor, as the information collected in Tables 5-7.

[4] = DHA distribution after single periorbital skin administration; type: in vivo, Bama minipigs; details: for concentration at 3 h: Bama, minipig, topical, 6092 μg/eye
Procedure: In this example, 6092 μg/eye of DHA was applied to the periorbital skin of a left eye of a Bama minipig. […] 27133.8 ng/g of tissue and 24795.8 ng/g of tissue of DHA was measured in the left and right halves of the brain, respectively. Taking the average of these two numbers, the amount of DHA present in the brain 3 hours post-dosage was 25964.9 ng/g.
Given that the average Bama pig brain weighs around 60 g, the amount of DHA delivered to the brain can be estimated to be 312,408 ng or 312 μg. Therefore, the percentage of administered dose=312 μg delivered to brain/6092 μg dosed=5.1% of DHA topically administered to the pig via periorbital administration was delivered to the brain. As a comparison, only about 0.025% of DHA that is orally administered is delivered to the brain or CNS.

[5] = oral administration; comparison value; cited from earlier work
[6] = 3 h, DHA 6092 μg to periorbital skin of left eye

For `CC/C=C\C/C=C\C/C=C\C/C=C\C/C=C\C/C=C\CCC(=O)O` [DHA, docosahexaenoic acid], the “OD/OS retina ratio of DHA” value ([1]; 6 h) was 99%, the “OD/OS retina ratio of DHA” value ([1]; 24 h) was 75% and the “Calculated Concentration, endogenous DHA in cornea” value ([2]; double blank samples) was “BLQ”. For the same compound, the “Calculated Concentration, endogenous DHA in plasma” value ([2]; double blank samples) was 0.5 µg/mL and 0.6 µg/mL, the “Calculated Concentration, endogenous DHA in retina” value ([2]; double blank samples) was 16 µg/g and 17 µg/g and the “Calculated Concentration, endogenous DHA in upper eyelid” value ([2]; double blank samples) was “BLQ”. For the same compound, the “Calculated Concentration, endogenous DHA in vitreous humor” value ([2]; double blank samples) was “BLQ”, the “Endogenous levels of DHA in monkey ocular tissues” value ([2]; LLOQ=0.5 μg/mL) was “mostly below the lower limit of quantification (LLOQ=0.5 μg/mL) or negligible” and the “Baseline endogenous concentration in brain” value [3] was 20758 ng/g. The “Baseline endogenous concentration in cerebrospinal fluid” value [3] was “BLQ”, the “Baseline endogenous concentration in eye tissue homogenate including (Retina, optic nerve, ocular muscle)” value [3] was 2643.5 ng/g and the “Baseline endogenous concentration in plasma” value [3] was 122.1 ng/mL. For the same compound, the “Drug Concentration in Plasma” value ([4]; 0 h, DHA 6092 μg to periorbital skin of left eye) was “BLQ”, the “Drug Concentration in Plasma” value ([4]; 1 h, DHA 6092 μg to periorbital skin of left eye) was “BLQ” and the “Percentage of administered dose delivered to the brain” value ([4]; 3 h, DHA 6092 μg periorbital, whole brain estimate) was 5.1%. The “% of administered dose: Cerebrospinal fluid” value [4, 6] was 0%, the “% of administered dose: brain-left” value [4, 6] was 6% and the “% of administered dose: brain-right” value [4, 6] was 4%. The “% of administered dose: inferior rectus muscle-left” value [4, 6] was 0.004%, the “% of administered dose: inferior rectus muscle-right” value [4, 6] was 0.01% and the “% of administered dose: lateral rectus muscle-left” value [4, 6] was 0.02%. For the same compound, the “% of administered dose: lateral rectus muscle-right” value [4, 6] was 0.03%, the “% of administered dose: medial rectus muscle-left” value [4, 6] was 0.01% and the “% of administered dose: medial rectus muscle-right” value [4, 6] was 0.01%. For the same compound, the “% of administered dose: optic nerve-left” value [4, 6] was 0.03%, the “% of administered dose: optic nerve-right” value [4, 6] was 0.05% and the “% of administered dose: retina-left” value [4, 6] was 0.2%. The “% of administered dose: retina-right” value [4, 6] was 0.1%, the “% of administered dose: superior rectus muscle-left” value [4, 6] was 0.01% and the “% of administered dose: superior rectus muscle-right” value [4, 6] was 0%. The “Drug Concentration in Plasma” value [4, 6] was “BLQ”, the concentration at 3 h ([4]; brain (average of left and right halves), 3 h, DHA 6092 μg to periorbital skin of left eye, read-out: Average DHA present in the brain (left and right halves)) was 26000 ng/g and the concentration at 3 h ([4]; brain, left half, 3 h, DHA 6092 μg to periorbital skin of left eye, read-out: Drug Concentration in Tissue: brain-left) was 27100 ng/g. The concentration at 3 h ([4]; brain, right half, 3 h, DHA 6092 μg to periorbital skin of left eye, read-out: Drug Concentration in Tissue: brain-right) was 24800 ng/g, the concentration at 3 h ([4]; cerebrospinal fluid, 3 h, DHA 6092 μg to periorbital skin of left eye, read-out: Drug Concentration in Tissue: Cerebrospinal fluid) was 0 ng/g and the concentration at 3 h ([4]; inferior rectus muscle, left (dosed side), 3 h, DHA 6092 μg to periorbital skin of left eye, read-out: Drug Concentration in Tissue: inferior rectus muscle-left) was 2750 ng/g. It also gave a concentration at 3 h ([4]; inferior rectus muscle, right (undosed side), 3 h, DHA 6092 μg to periorbital skin of left eye, read-out: Drug Concentration in Tissue: inferior rectus muscle-right) of 2340 ng/g, a concentration at 3 h ([4]; lateral rectus muscle, right, 3 h, DHA 6092 μg to periorbital skin of left eye, read-out: Drug Concentration in Tissue: lateral rectus muscle-right) of 1980 ng/g and a concentration at 3 h ([4]; lateral rectus muscle, 3 h, DHA 6092 μg to periorbital skin of left eye, read-out: Drug Concentration in Tissue: lateral rectus muscle-left) of 8100 ng/g. It also gave a concentration at 3 h ([4]; medial rectus muscle, left (dosed side), 3 h, DHA 6092 μg to periorbital skin of left eye, read-out: Drug Concentration in Tissue: medial rectus muscle-left) of 2720 ng/g, a concentration at 3 h ([4]; medial rectus muscle, right, 3 h, DHA 6092 μg to periorbital skin of left eye, read-out: Drug Concentration in Tissue: medial rectus muscle-right) of 1520 ng/g and a concentration at 3 h ([4]; optic nerve, left (dosed side), 3 h, DHA 6092 μg to periorbital skin of left eye, read-out: Drug Concentration in Tissue: optic nerve-left) of 10400 ng/g. It also gave a concentration at 3 h ([4]; optic nerve, right (undosed side), 3 h, DHA 6092 μg to periorbital skin of left eye, read-out: Drug Concentration in Tissue: optic nerve-right) of 15300 ng/g, a concentration at 3 h ([4]; retina, left (dosed side), 3 h, DHA 6092 μg to periorbital skin of left eye, read-out: Drug Concentration in Tissue: retina-left) of 61700 ng/g and a concentration at 3 h ([4]; retina, right (undosed side), 3 h, DHA 6092 μg to periorbital skin of left eye, read-out: Drug Concentration in Tissue: retina-right) of 42100 ng/g. The concentration at 3 h ([4]; superior rectus muscle, right, 3 h, DHA 6092 μg to periorbital skin of left eye, read-out: Drug Concentration in Tissue: superior rectus muscle-right) was 0 ng/g, the concentration at 3 h ([4]; superior rectus muscle, 3 h, DHA 6092 μg to periorbital skin of left eye, read-out: Drug Concentration in Tissue: superior rectus muscle-left) was 3050 ng/g and the “Share of orally administered DHA delivered to the brain or CNS” value [5] was “about 0.025%”.
